Values quoted from earlier work in US20200338153A1, “ANAEROBIC ANTIOXIDANT COMPOSITION” (priority 2019, published 2020).

Conditions: in vivo

## CC(=O)N[C@@H](CS)C(=O)O [NAC, N-acetylcysteine]
  fraction renally excreted by the body: 30%
